Reference: the supplement of paper PMC10307832

Columns and labels:
Assay in all cases: relative viability (nuclei count vs DMSO), 5 days (fraction); higher = more cells survive
NCI-H1734 = system: NCI-H1734
How it was run: (§1)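 Relative viability divides the nuclei count in treated wells by that in vehicle wells. Lung cancer cell lines were seeded in 1536-well plates, dosed by pin tool the next day, and fixed and stained after 5 days in one step with final 0.05% Triton X-100, 1% formaldehyde and 1 ug/ml Hoechst. Dosing was a single drug or a fixed anchor-drug dose plus five library-drug doses (not always all listed) in √10 steps, and values are medians of duplicate plates imaged at 4×.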

SW 1573 = system: SW 1573
How it was run: as §1

NCI-H1650 = system: NCI-H1650
How it was run: as §1

PC-3 [JPC-3] = system: PC-3 [JPC-3]
How it was run: as §1

CAL-12T = system: CAL-12T
How it was run: as §1

NCI-H661 = system: NCI-H661
How it was run: as §1

NCI-H1563 = system: NCI-H1563
How it was run: as §1

COR-L23 = system: COR-L23
How it was run: as §1

HCC-827 = system: HCC-827
How it was run: as §1

ABC-1 = system: ABC-1
How it was run: as §1

LK-2 = system: LK-2
How it was run: as §1

NCI-H520 = system: NCI-H520
How it was run: as §1

NCI-H2405 = system: NCI-H2405
How it was run: as §1

PC-14 = system: PC-14
How it was run: as §1

NCI-H1355 = system: NCI-H1355
How it was run: as §1

EKVX = system: EKVX
How it was run: as §1

RERF-LC-KJ = system: RERF-LC-KJ
How it was run: as §1

H3255 = system: H3255
How it was run: as §1

NCI-H2228 = system: NCI-H2228
How it was run: as §1

NCI-H1437 = system: NCI-H1437
How it was run: as §1

HCC-15 = system: HCC-15
How it was run: as §1

NCI-H322M = system: NCI-H322M
How it was run: as §1

Q: With `O=C(O)c1ccc(-c2c[nH]c3ncc(-c4ccccc4)cc23)cc1C1CCCC1` + C[C@@H](Oc1cc(-c2cnn(C3CCNCC3)c2)cnc1N)c1c(Cl)ccc(F)c1Cl [Crizotinib] (partner 1 µM) as the molecule, how does the relative viability (NCI-H1734; first compound 0.04 µM) read?
A: 0.752

Q: What about the relative viability (NCI-H1734; first compound 0.1265 µM) of the same molecule?
A: 0.705

Q: What about the relative viability (NCI-H1734; first compound 0.4 µM) of the same molecule?
A: 0.601

Q: And the relative viability (NCI-H1734; first compound 1.265 µM)?
A: 0.543

Q: And the relative viability (SW 1573; first compound 0.04 µM)?
A: 0.769

Q: What about the relative viability (SW 1573; first compound 0.1265 µM) of the same molecule?
A: 0.892

Q: And the relative viability (SW 1573; first compound 0.4 µM)?
A: 0.862

Q: And the relative viability (SW 1573; first compound 1.265 µM)?
A: 0.925

Q: What about the relative viability (NCI-H1650; first compound 0.04 µM) of the same molecule?
A: 1.02

Q: What about the relative viability (NCI-H1650; first compound 0.1265 µM) of the same molecule?
A: 0.996

Q: And the relative viability (NCI-H1650; first compound 0.4 µM)?
A: 0.917

Q: And the relative viability (NCI-H1650; first compound 1.265 µM)?
A: 0.743

Q: And the relative viability (PC-3 [JPC-3]; first compound 0.04 µM)?
A: 0.963

Q: What about the relative viability (PC-3 [JPC-3]; first compound 0.1265 µM) of the same molecule?
A: 1.03

Q: And the relative viability (PC-3 [JPC-3]; first compound 0.4 µM)?
A: 0.968

Q: What about the relative viability (PC-3 [JPC-3]; first compound 1.265 µM) of the same molecule?
A: 0.832

Q: And the relative viability (CAL-12T; first compound 0.04 µM)?
A: 0.633

Q: And the relative viability (CAL-12T; first compound 0.1265 µM)?
A: 0.755

Q: And the relative viability (CAL-12T; first compound 0.4 µM)?
A: 0.701

Q: And the relative viability (CAL-12T; first compound 1.265 µM)?
A: 0.528

Q: What about the relative viability (NCI-H661; first compound 0.1265 µM) of the same molecule?
A: 0.963

Q: What about the relative viability (NCI-H661; first compound 0.4 µM) of the same molecule?
A: 0.967

Q: What about the relative viability (NCI-H661; first compound 1.265 µM) of the same molecule?
A: 1.03

Q: And the relative viability (NCI-H1563; first compound 0.04 µM)?
A: 0.787

Q: What about the relative viability (NCI-H1563; first compound 0.1265 µM) of the same molecule?
A: 0.91

Q: And the relative viability (NCI-H1563; first compound 0.4 µM)?
A: 0.851

Q: What about the relative viability (NCI-H1563; first compound 1.265 µM) of the same molecule?
A: 0.875

Q: What about the relative viability (COR-L23; first compound 0.04 µM) of the same molecule?
A: 0.584

Q: What about the relative viability (COR-L23; first compound 0.1265 µM) of the same molecule?
A: 0.508

Q: And the relative viability (COR-L23; first compound 0.4 µM)?
A: 0.681

Q: What about the relative viability (COR-L23; first compound 1.265 µM) of the same molecule?
A: 0.476

Q: And the relative viability (HCC-827; first compound 0.04 µM)?
A: 0.88

Q: What about the relative viability (HCC-827; first compound 0.1265 µM) of the same molecule?
A: 0.95

Q: And the relative viability (HCC-827; first compound 0.4 µM)?
A: 0.897

Q: And the relative viability (HCC-827; first compound 1.265 µM)?
A: 0.724

Q: What about the relative viability (ABC-1; first compound 0.04 µM) of the same molecule?
A: 1.4

Q: And the relative viability (ABC-1; first compound 0.1265 µM)?
A: 1.06

Q: What about the relative viability (ABC-1; first compound 0.4 µM) of the same molecule?
A: 1.18

Q: What about the relative viability (ABC-1; first compound 1.265 µM) of the same molecule?
A: 0.98

Q: What about the relative viability (LK-2; first compound 0.04 µM) of the same molecule?
A: 0.31

Q: And the relative viability (LK-2; first compound 0.1265 µM)?
A: 0.202

Q: What about the relative viability (LK-2; first compound 0.4 µM) of the same molecule?
A: 0.291

Q: And the relative viability (LK-2; first compound 1.265 µM)?
A: 0.198

Q: And the relative viability (NCI-H520; first compound 0.04 µM)?
A: 0.748

Q: What about the relative viability (NCI-H520; first compound 0.1265 µM) of the same molecule?
A: 1.02

Q: And the relative viability (NCI-H520; first compound 0.4 µM)?
A: 0.744

Q: What about the relative viability (NCI-H520; first compound 1.265 µM) of the same molecule?
A: 0.828

Q: What about the relative viability (NCI-H2405; first compound 0.04 µM) of the same molecule?
A: 0.862

Q: What about the relative viability (NCI-H2405; first compound 0.1265 µM) of the same molecule?
A: 0.94

Q: What about the relative viability (NCI-H2405; first compound 0.4 µM) of the same molecule?
A: 0.841

Q: And the relative viability (NCI-H2405; first compound 1.265 µM)?
A: 0.715

Q: What about the relative viability (PC-14; first compound 0.04 µM) of the same molecule?
A: 0.931

Q: And the relative viability (PC-14; first compound 0.1265 µM)?
A: 0.849

Q: And the relative viability (PC-14; first compound 0.4 µM)?
A: 0.921

Q: What about the relative viability (PC-14; first compound 1.265 µM) of the same molecule?
A: 0.672

Q: And the relative viability (NCI-H1355; first compound 0.04 µM)?
A: 1.05

Q: What about the relative viability (NCI-H1355; first compound 0.1265 µM) of the same molecule?
A: 1.14

Q: And the relative viability (NCI-H1355; first compound 0.4 µM)?
A: 1.04

Q: What about the relative viability (NCI-H1355; first compound 1.265 µM) of the same molecule?
A: 0.752

Q: And the relative viability (EKVX; first compound 0.04 µM)?
A: 1.13

Q: What about the relative viability (EKVX; first compound 0.1265 µM) of the same molecule?
A: 0.891

Q: And the relative viability (EKVX; first compound 0.4 µM)?
A: 0.927

Q: And the relative viability (EKVX; first compound 1.265 µM)?
A: 0.676

Q: What about the relative viability (RERF-LC-KJ; first compound 0.04 µM) of the same molecule?
A: 0.795

Q: And the relative viability (RERF-LC-KJ; first compound 0.1265 µM)?
A: 0.851

Q: And the relative viability (RERF-LC-KJ; first compound 0.4 µM)?
A: 0.823

Q: What about the relative viability (RERF-LC-KJ; first compound 1.265 µM) of the same molecule?
A: 0.766

Q: And the relative viability (H3255; first compound 0.04 µM)?
A: 0.953

Q: What about the relative viability (H3255; first compound 0.1265 µM) of the same molecule?
A: 0.851

Q: What about the relative viability (H3255; first compound 0.4 µM) of the same molecule?
A: 0.825

Q: What about the relative viability (H3255; first compound 1.265 µM) of the same molecule?
A: 0.9

Q: And the relative viability (NCI-H2228; first compound 0.04 µM)?
A: 0.62

Q: What about the relative viability (NCI-H2228; first compound 0.1265 µM) of the same molecule?
A: 0.556

Q: What about the relative viability (NCI-H2228; first compound 0.4 µM) of the same molecule?
A: 0.469

Q: What about the relative viability (NCI-H2228; first compound 1.265 µM) of the same molecule?
A: 0.292

Q: What about the relative viability (NCI-H1437; first compound 0.04 µM) of the same molecule?
A: 1.03

Q: What about the relative viability (NCI-H1437; first compound 0.1265 µM) of the same molecule?
A: 0.959

Q: What about the relative viability (NCI-H1437; first compound 0.4 µM) of the same molecule?
A: 0.874

Q: And the relative viability (NCI-H1437; first compound 1.265 µM)?
A: 0.839

Q: What about the relative viability (HCC-15; first compound 0.04 µM) of the same molecule?
A: 0.845

Q: What about the relative viability (HCC-15; first compound 0.1265 µM) of the same molecule?
A: 0.79

Q: What about the relative viability (HCC-15; first compound 0.4 µM) of the same molecule?
A: 0.633

Q: What about the relative viability (HCC-15; first compound 1.265 µM) of the same molecule?
A: 0.339

Q: What about the relative viability (NCI-H322M; first compound 0.04 µM) of the same molecule?
A: 0.943

Q: And the relative viability (NCI-H322M; first compound 0.1265 µM)?
A: 0.918

Q: What about the relative viability (NCI-H322M; first compound 0.4 µM) of the same molecule?
A: 1.01

Q: And the relative viability (NCI-H322M; first compound 1.265 µM)?
A: 0.839
